# System: Huh-7 cells
# Test: Release of active metabolite in Huh-7 cells
# Type: in vitro ADME
# Procedure: Huh-7 cells were plated in 1 mL culture medium (DMEM, containing glucose, L-glutamine and sodium pyruvate, 10% FBS, 100 IU/mL penicillin, 100 μg/mL streptomycin, 2 mM GlutaMAX, 1% MEM non-essential amino acids) at the concentration 0.8, 0.4 and 0.2 million cells per well on 6 well plates for 24, 48 and 72 hr treatment, respectively. Plated cells were incubated overnight at 37° C. in an incubator.
# The following morning test compound was diluted to 20 μM from a stock solution in DMSO in fresh culture medium pre-warmed to 37° C. and 1 mL of the solution/well was added to cells. A final medium volume per well was 2.0 mL, test compound concentration in well was 10 μM and final DMSO concentration was 0.1%.
# After 24, 48 or 72 hr, the medium was carefully removed and cell monolayers were washed twice with 2 mL ice-cold PBS per well. Following the last wash, all PBS was carefully removed and 1.0 mL of extraction solution (ice-cold 70% methanol) added. The plate was tightly covered with Parafilm, plastic plate cover and Parafilm again and an intracellular content was extracted at −20° C. for 24 hr.
# After 24 hr the extracts were transferred into polypropylene microfuge tubes and dry on a refrigerated centrivap concentrator. Dry residues were reconstituted in 250 μL of HPLC-grade water and centrifuged at 16,000×g for 10 min. Aliquots (100 μL each) of the supernatants were transferred into a 96 well plate and internal standard (4 ng/mL final concentration) was added as the internal standard (IS) for LC-MS/MS analysis.
smiles,measurement,setting,value
"CC(C)OC(=O)[C@H](C)NP(=O)(OC[C@H]1O[C@@H](n2ccc(=O)[nH]c2=O)[C@](C)(Cl)[C@@H]1O)Oc1ccccc1 (single isomer, unassigned) [Compound 40ii Diastereomer 2]",Huh-7 TP AUC,10 μM,++++ (1500 < ++++)
same,Huh-7 TP Cmax,10 μM test compound,++++ (100 < ++++)
same,Huh-7 TP (24 hr),"10 μM, 24 hr",++++ (100 < ++++)
same,Huh-7 TP (48 hr),"10 μM, 48 hr",++++ (100 < ++++)
same,Huh-7 TP (72 hr),"10 μM, 72 hr",++++ (100 < ++++)

# — patent US10513534B2, “2′-chloro nucleoside analogs for HCV infection” (priority 2012, dated 2019)
